Laboratory results published in the supplement of paper PMC10307832.

How the values were obtained:
Test in all cases: relative viability (nuclei count vs DMSO), 5 days (fraction); higher = more cells survive
[1] = compound: C[C@@H](N)c1ccc(C(=O)Nc2ccnc3[nH]ccc23)cc1 + CC(C)C[C@H](NC(=O)[C@H](Cc1ccccc1)NC(=O)c1cnccn1)B(O)O [Bortezomib] (partner 0.002 µM)
Procedure, shortened: (§1)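 Dosing by pin tool came one day after lung cancer cell lines were seeded in 1536-well plates, using either one drug or a fixed anchor-drug dose plus five library-drug doses (not always all listed) in √10 steps. After 5 days, nuclei were counted on 4× images. Relative viability is treated-well nuclei count divided by vehicle-well nuclei count, and values are medians of duplicate plates.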

[2] = compound: C1CNCCC1C2=CC(=NN2)C3=CC=NC=C3 + CC(=O)c1c(C)c2cnc(Nc3ccc(N4CCNCC4)cn3)nc2n(C2CCCC2)c1=O [Palbociclib] (partner 0.5 µM)
Procedure, shortened: as §1

[3] = compound: C[C@@H](N)c1ccc(C(=O)Nc2ccnc3[nH]ccc23)cc1 + CS(=O)(=O)CCNCc1ccc(-c2ccc3ncnc(Nc4ccc(OCc5cccc(F)c5)c(Cl)c4)c3c2)o1 [Lapatinib] (partner 2 µM)
Procedure, shortened: as §1

[4] = compound: C[C@@H](N)c1ccc(C(=O)Nc2ccnc3[nH]ccc23)cc1 + COc1cc2c(Oc3ccc(NC(=O)C4(C(=O)Nc5ccc(F)cc5)CC4)cc3F)ccnc2cc1OCCCN1CCOCC1 [Foretinib] (partner 0.25 µM)
Procedure, shortened: as §1

Row | Cell Line | relative viability ([1]; first compound 0.04 µM) | relative viability ([1]; first compound 0.1265 µM) | relative viability ([1]; first compound 0.4 µM) | relative viability ([1]; first compound 1.265 µM) | relative viability ([1]; first compound 4 µM) | relative viability ([2]; first compound 0.08 µM) | relative viability ([2]; first compound 0.8 µM) | relative viability ([2]; first compound 2.53 µM) | relative viability ([2]; first compound 8 µM) | relative viability ([3]; first compound 0.04 µM) | relative viability ([3]; first compound 0.1265 µM) | relative viability ([3]; first compound 0.4 µM) | relative viability ([3]; first compound 1.265 µM) | relative viability ([3]; first compound 4 µM) | relative viability ([4]; first compound 0.04 µM) | relative viability ([4]; first compound 0.1265 µM) | relative viability ([4]; first compound 0.4 µM) | relative viability ([4]; first compound 1.265 µM) | relative viability ([4]; first compound 4 µM)
1 | NCI-H1755 | 0.929 | 0.949 | 0.966 | 0.906 | 0.677 | 0.437 | 0.442 | 0.462 | 0.365 | 0.874 | 1 | 1.05 | 0.705 | 0.685 | 0.95 | 0.96 | 0.901 | 0.903 | 0.664
2 | NCI-H1915 | 0.988 | 1.01 | 1.01 |  | 0.823 | 0.502 | 0.521 | 0.493 | 0.529 | 0.908 | 0.972 | 0.966 |  | 0.848 | 1.17 | 1.11 | 1.12 |  | 0.984
3 | NCI-H1975 | 0.314 | 0.365 | 0.37 | 0.308 | 0.244 | 0.629 | 0.342 | 0.668 | 0.645 | 0.833 | 0.765 | 0.922 | 0.88 | 0.546 | 1.06 | 0.854 | 0.847 | 0.681 | 0.653
4 | NCI-H1993 | 1.19 | 1.13 |  | 0.943 | 1.15 | 0.704 | 0.737 | 0.698 | 0.738 | 0.791 | 0.858 |  | 0.776 | 0.87 | 0.785 | 0.732 | 0.781 | 0.924 | 0.714
5 | NCI-H2009 | 0.89 | 0.928 | 0.969 | 0.354 | 0.827 | 0.123 | 0.148 | 0.189 | 0.238 | 0.682 | 0.736 | 0.916 | 0.114 | 0.747 | 1.2 | 1.14 | 1.11 | 1.02 | 0.868
6 | NCI-H2023 | 0.948 | 0.925 | 1.1 | 0.421 | 0.953 | 0.315 | 0.379 | 0.418 | 0.386 | 0.844 | 0.737 | 1.15 | 0.0713 | 0.99 | 0.965 | 1.14 | 1.4 | 0.988 | 0.766
7 | NCI-H2085 | 0.882 | 1 | 0.979 | 0.996 | 0.842 | 0.519 |  | 0.481 | 0.485 | 0.841 | 0.729 | 0.872 | 0.546 | 0.799 | 1.03 | 0.989 | 0.918 | 0.901 | 0.79
8 | NCI-H2087 | 0.49 | 0.783 | 0.719 | 0.499 | 0.686 | 0.18 | 0.22 | 0.196 | 0.276 | 0.85 | 1.22 | 0.831 | 0.148 | 0.825 | 1.16 | 1.07 | 1.1 |  | 0.983
9 | NCI-H2126 | 1.13 | 1.11 | 1.17 | 1.14 | 1.22 | 0.364 | 0.368 | 0.322 | 0.354 | 0.825 | 0.866 | 0.764 | 0.859 | 0.966 | 1.2 | 1.13 | 1.29 |  | 1.09
10 | NCI-H2228 | 1.42 | 1.18 | 1.31 | 0.932 | 1.01 | 0.822 | 0.991 | 0.787 | 0.863 | 1.18 | 1.09 | 1.2 | 1.17 | 0.868 | 1.03 | 0.743 | 1.02 | 0.911 | 0.866
11 | NCI-H2347 | 0.955 | 1.02 | 1.08 |  | 1.09 | 0.385 | 0.453 | 0.44 | 0.431 | 0.833 | 0.959 | 0.933 | 0.347 | 0.868 | 1.17 | 0.964 | 1.22 |  | 1.32
12 | NCI-H2405 | 0.895 | 0.973 | 0.903 | 0.274 | 0.491 | 0.502 | 0.519 | 0.586 | 0.507 |  | 1.18 | 1.05 | 0.487 | 0.351 | 1.12 | 1.09 | 1.13 | 0.838 | 0.519
13 | NCI-H3122 | 1.05 | 0.979 | 1.04 | 1 | 0.912 | 0.152 | 0.185 | 0.181 | 0.178 | 0.966 | 1.04 | 1.08 | 0.875 | 0.981 | 0.943 | 1.03 | 0.952 | 0.98 | 0.897
14 | PC-3 [JPC-3] | 0.838 | 0.892 | 0.856 | 0.921 | 0.729 | 0.547 | 0.495 | 0.558 | 0.541 | 0.538 | 0.545 | 0.505 | 0.529 | 0.536 | 1.05 | 0.996 | 1.09 | 0.982 | 0.936
15 | PC-14 | 0.832 | 0.836 | 0.874 | 0.923 | 0.755 | 0.531 | 0.585 | 0.613 | 0.468 | 0.292 | 0.344 | 0.295 | 0.271 | 0.329 | 0.753 | 0.943 | 0.95 | 0.877 | 0.832
16 | RERF-LC-KJ | 1.19 | 1.21 | 1.2 | 1.24 | 1.12 | 0.989 | 1.14 | 1.11 | 1.06 | 0.906 | 0.837 | 0.931 | 0.902 | 0.869 | 0.899 | 0.811 | 0.9 | 0.899 | 0.909
17 | SK-LU-1 | 0.886 | 1.54 | 1.01 | 0.753 | 0.743 | 0.418 | 0.348 | 0.43 | 0.397 | 0.847 | 0.85 | 0.906 | 0.828 | 0.779 | 0.96 | 0.804 | 0.82 | 0.732 | 0.573
